In patent US9233164B2, “Water soluble fullerene formulations and methods of use thereof” (BOARD OF REGENTS OF THE UNIVERSITY OF NEBRASKA, priority 2011, dated 2016):

System: superoxide
Assay: Cell-free superoxide scavenging by EPR spectroscopy (HX+XO or FMN source, CMH spin probe)
Type: biochemical
Details: 400 U/ml SOD1
Procedure: The ability of C60-polymer complexes to scavenge superoxide was measured by EPR spectroscopy, as reported (Rosenbaugh et al. (2010) Biomaterials 31:5218-26). Briefly, superoxide generated by HX—XO or a photosensitizer, FMN, was detected using the CMH spin probe. Samples contained 0.025 mM DF and 0.005 mM DETC buffer (pH 7.4), 0.025 mM CMH, 0.025 mM HX and 10 mU XO (or 0.02 mM FMN instead of HX—XO) and C60-polymer complexes at different concentrations. After complete mixing, each sample was incubated at r.t. for 5 minutes and 50 μl of the sample was loaded into a glass capillary, which was then inserted into the capillary holder of the EPR spectrometer. The CMH radical signal was recorded and EPR spectrum amplitude was quantified.

## superoxide dismutase [SOD1]
  Effect on EPR spectrum: completely abolished the EPR spectrum
